# Results from article PMC8619920, “New Polyesterified Ursane Derivatives from Leaves of Maesa membranacea and Their Cytotoxic Activity” (Molecules, 2021).
# How the values were obtained:
# Type in all cases: cell-based
# [1] = test system: HT29 human colon adenocarcinoma cells; assay: Cytotoxicity, LDH assay, HT29 cells; conditions: Homo sapiens, HT-29; 24 h treatment, 5–100 μg/mL
# Protocol: (§1) Cytotoxic activity was tested on human cancer and normal cells, grouped in three panels, namely: prostate, skin and gastrointestinal. The prostate panel consisted of prostate cancer cell lines Du145 (ATCC HTB-81) and PC3 (ATCC CRL-1435), and prostate epithelial cells PNT-2 (ECACC 95012613). Melanoma cell lines A375 (ATCC CRL-1619) and HTB140 (ATCC Hs 294T) together with skin keratinocytes HaCaT (obtained as a kind gift of prof. Marta Michalik, Department of Cell Biology, Jagiellonian University, Kraków, Poland) were included into the skin panel. The gastrointestinal panel of cells comprised colon cancer cell lines Caco-2 (ATCC HTB-37) and HT29 (ATCC HTB-38). Du145 cells were grown in Modified Eagle’s Medium with low (1.0 g/L) glucose concentration, HT29, PC3 and PNT-2 cells in Dulbecco’s Modified Eagle’s Media: F12 HAM Nutrient Mixture, Caco-2 in Modified Eagle’s Medium with NEAA (no-essential amino acids) while melanoma cells and keratinocytes were maintained in Modified Eagle’s Medium with high (4.5 g/L) glucose concentration. The culture media (all supplied by Sigma-Aldrich Co.; St. Louis, MO, USA) contained antibiotics and 10% fetal bovine serum (FBS). All cultures were maintained at 37 °C, in a humidified, 5% CO2 containing, atmosphere.
# (§2) The examined triterpenes were diluted in the culture media from freshly made stock solutions in MeOH (10 mg/mL) to the working concentrations (from 0 to 100 μg/mL).
# (§3) Cell viability was determined as it was described previously. Cells suspended in the nutrient medium were transferred into 96-well microtiter plates (density 1.5 × 10^4 per well), and preincubated for 24 h (37 °C, 5% CO2). Then, the culture medium was replaced with the medium containing different concentrations of 1 or 2 (1–100 μg/mL). After 24 h of incubation, viability of the cells was determined using colorimetric lactate dehydrogenase (LDH) assay, in comparison to the controls to which corresponding aliquots of MeOH diluted with culture media were added. Cells grown in the medium without the tested compounds were used as control I (negative) and the positive control (control II) was obtained by incubation of the cells in the medium containing 1% Triton X-100. LDH released from the damaged cells into the cell culture medium was quantified by measuring the absorbance at 490 nm using Synergy II Biotek (BioTek Instruments, Winooski, VT, USA) microplate reader. Cytotoxicities of the examined compounds were calculated as follows: [(absorbance of the tested sample − absorbance of control I)/(absorbance of control II − absorbance of control I)] × 100. Results were means of three independent measurements (± SD). Doxorubicin (Ebewe Pharma GmbH., Unterach, Austria) was used as a reference cytostatic drug. The IC50 values were determined by plotting the percentage viability of the cells versus concentration and the adequate calculations made using AAT Bioquest website program (https://www.aatbio.com/tools/ic50-calculator, accessed on 29 October 2021).
# [2] = test system: Caco-2 human colon adenocarcinoma cells; assay: Cytotoxicity, LDH assay, Caco-2 cells; conditions: Homo sapiens, Caco-2, 24 h, 24 h treatment, 5–100 μg/mL
# Protocol: as §1, §2, §3
# [3] = test system: PNT-2 human normal prostate epithelium cells; assay: Cytotoxicity, LDH assay, PNT-2 cells; conditions: Homo sapiens, PNT2; 24 h treatment, 5–100 μg/mL
# Protocol: as §1, §2, §3
# [4] = test system: PC3 human prostate adenocarcinoma cells; assay: Cytotoxicity, LDH assay, PC3 cells; conditions: Homo sapiens, PC-3, 24 h, 24 h treatment, 5–100 μg/mL
# Protocol: as §1, §2, §3
# [5] = test system: DU145 human prostate carcinoma cells; assay: Cytotoxicity, LDH assay, DU145 cells; conditions: Homo sapiens, DU-145, 24 h, 24 h treatment, 5–100 μg/mL
# Protocol: as §1, §2, §3
# [6] = test system: A375 human malignant melanoma cells; assay: Cytotoxicity, LDH assay, A375 cells; conditions: Homo sapiens, A-375; 24 h treatment, 5–100 μg/mL
# Protocol: as §1, §2, §3
smiles,measurement,setting,value
"COc1cccc2c1C(=O)c1c(O)c3c(c(O)c1C2=O)C[C@@](O)(C(=O)CO)C[C@@H]3O[C@H]1C[C@H](N)[C@H](O)[C@H](C)O1 [Doxorubicin, reference compound]",IC50,[1],1.53 µg/mL
same,IC50,[2],3.44 µg/mL
same,IC50,[3],1.38 µg/mL
same,IC50,[4],> 50 µg/mL
same,IC50,[5],3.18 µg/mL
same,IC50,[6],0.59 µg/mL
